Article PMC6720605, “Bioactivity of Methoxylated and Methylated 1-Hydroxynaphthalene-2-Carboxanilides: Comparative Molecular Surface Analysis” (Molecules, 2019)
pIC50: −log10 of the molar value. Converted amounts (≈) assume the structure as drawn. Like-named read-outs stand apart in the source and are kept apart here.

Tests used:
[1] = test system: human monocytic leukaemia THP-1 cells; type: cell-based; conditions: 30 µM highest concentration
Description: Human monocytic leukaemia THP-1 cells were obtained from the European Collection of Cell Cultures (ECACC, Salisbury, UK; Methods of characterization: DNA Fingerprinting (Multilocus probes) and isoenzyme analysis). Cell toxicity was determined using a Cytotoxicity Detection Kit^PLUS Lactate dehydrogenase (LDH) assay kit (Roche Diagnostics, Mannheim, Germany) according to the manufacturer’s instructions, as described previously.

[2] = test system: methicillin-resistant S. aureus 63718; experiment: In vitro antibacterial evaluation (MIC), MRSA clinical isolate 63718; type: cell-based, Staphylococcus aureus
Description: (§1) The synthesized compounds were evaluated for in vitro antibacterial activity against representatives of multidrug-resistant bacteria, clinical isolates of methicillin-resistant Staphylococcus aureus (MRSA) 63718, SA 630 and SA 3202 [16, 17] that were obtained from the National Institute of Public Health (Prague, Czech Republic). S. aureus ATCC 29213 was used as the reference and quality control strain. Ampicillin (Sigma, St. Louis, MO, USA) was used as the standard. The screening was performed as described previously.

[3] = test system: photosynthetic electron transport (PET) in spinach (Spinacia oleracea L.) chloroplasts; experiment: Inhibition of photosynthetic electron transport (PET) in spinach chloroplasts; type: biochemical
Description: The PET-inhibiting investigation using chloroplasts from spinach (Spinacia oleracea L.) was performed as described previously.

[4] = Lipophilicity determination by HPLC (capacity factor k / calculated log k); type: physicochemical; conditions: experimental lipophilicity
Description: The lipophilicity determination was performed as described by Kapustikova et al..

[5] = test system: Staphylococcus aureus ATCC 29213; experiment: In vitro antistaphylococcal susceptibility testing (MIC), reference strain; type: cell-based
Description: as §1

[6] = test system: Mycobacterium tuberculosis H37Ra ATCC 25177; experiment: In vitro antimycobacterial evaluation (MIC), M. tuberculosis; type: cell-based
Description: (§2) The evaluation of the in vitro antimycobacterial activity of the compounds was performed against Mycobacterium tuberculosis H37Ra ATCC 25177 and M. kansasii DSM 44162 by means of the methodology described recently [e.g., 1,3,4–6,15,43]. Isoniazid (Sigma) was used as the standard.

M. kansasii DSM 44162 = experiment: In vitro antimycobacterial evaluation (MIC), M. kansasii; type: cell-based, Mycobacterium kansasii
Description: as §2

[7] = test system: methicillin-resistant S. aureus SA 3202; experiment: In vitro antibacterial evaluation (MIC), MRSA clinical isolate SA 3202; type: cell-based, Staphylococcus aureus; conditions: read-out: MIC MRSA SA 3202
Description: as §1

[8] = test system: methicillin-resistant S. aureus SA 630; experiment: In vitro antibacterial evaluation (MIC), MRSA clinical isolate SA 630; type: cell-based, Staphylococcus aureus; conditions: read-out: MIC MRSA SA 630
Description: as §1

S. aureus ATCC 29213 = conditions: Staphylococcus aureus, 24 h
[9] = test system: M. tuberculosis ATCC 25177/H37Ra; experiment: MTT assay, viability of M. tuberculosis; type: cell-based, Mycobacterium tuberculosis; conditions: at tested MIC concentration; 7 days
Description: Compounds were prepared as previously stated and diluted in MH or MB broth for S. aureus to achieve the desired final concentrations 0.5 and 1 µg/mL, respectively, for S. aureus ATCC 29213, and 2 and 8 µg/mL, respectively, for M. tuberculosis ATCC 25177/H37Ra. M. tuberculosis ATCC 25177/H37Ra was suspended in ODAC supplemented MB at 1.0 McFarland and then diluted 1:10, using MB as a diluent. The diluted mycobacteria (50 µL) were added to each well containing the compound to be tested. S. aureus bacterial suspension in sterile distilled water at 0.5 McFarland was diluted 1:3. Inocula were added to each well by multi-inoculator. Diluted mycobacteria in broth free from inhibiting compounds were used as the growth control. All compounds were prepared in duplicate. […] The plates were read at 570 nm. The absorbance readings from the cells grown in the presence of the tested compounds were compared with uninhibited cell growth to determine the relative percent inhibition. The percent inhibition was determined through the MTT assay. The percent viability is calculated through the comparison of a measured value and that of the uninhibited control: % viability = OD570E/OD570P × 100, where OD570E is the reading from the compound-exposed cells, while OD570P is the reading from the uninhibited cells (positive control). Cytotoxic potential is determined by a percent viability of <70% [37, 38, 39, 52].

[10] = Staphylococcus aureus, clinical isolate MRSA 63718, read-out: MIC MRSA 63718
[11] = Staphylococcus aureus, one value for the three clinical MRSA strains (63718, SA 630, SA 3202), read-out: MIC against the MRSA strains
[12] = Mycobacterium kansasii, DSM44162, M. kansasii DSM 44162, read-out: MIC MK
[13] = Staphylococcus aureus, clinical isolate MRSA SA 3202
[14] = Staphylococcus aureus, clinical isolate MRSA SA 630
[15] = clinical isolate MRSA 63718, read-out: MIC MRSA 63718
[16] = M. kansasii DSM 44162, read-out: MIC MK

Structure (SMILES)	Tox LD50 [1] [µM]	pIC50 [3]	log k [4]	MIC ([5]; ATCC29213) [µM]	MIC [6] [µM]	MIC [5] [µM]	MIC [2, 15] [µM]	MIC (M. kansasii DSM 44162; [16]) [µM]	MIC ([7]; clinical isolate MRSA SA 3202) [µM]	MIC ([8]; clinical isolate MRSA SA 630) [µM]	other results
CC[C@@]1(O)C(=O)OCc2c1cc1n(c2=O)Cc2cc3ccccc3nc2-1 [camptothecin, reference compound]	0.16 ± 0.07	–	–	–	–	–	–	–	–	–	–
Cc1ccc(C)c(NC(=O)c2ccc3ccccc3c2O)c1 [Compound 11, N-(2,5-dimethylphenyl)-1-hydroxynaphthalene-2-carboxamide]	>30	4.28	0.7155	13.7 (≈ 3.99 µg/mL)	110 (≈ 32 µg/mL)	–	–	–	–	–	MIC [2, 10]: 27.5 µM (≈ 8.01 µg/mL); MIC [2, 11]: 27.5 µM (≈ 8.01 µg/mL); MIC (M. kansasii DSM 44162; [12]): 220 µM (≈ 64.1 µg/mL); MIC [7, 13]: 27.5 µM (≈ 8.01 µg/mL); MIC [8, 14]: 27.5 µM (≈ 8.01 µg/mL)
Cc1cc(C)cc(NC(=O)c2ccc3ccccc3c2O)c1 [Compound 13, N-(3,5-dimethylphenyl)-1-hydroxynaphthalene-2-carboxamide]	>30	5.09	1.0030	3.43 (≈ 0.999 µg/mL)	6.86 (≈ 2 µg/mL)	3.43 (≈ 0.999 µg/mL)	–	–	–	–	MIC [2, 10]: 6.85 µM (≈ 2 µg/mL); MIC [2, 11]: 6.85 µM (≈ 2 µg/mL); viability of S. aureus ATCC 29213 (MTT) (S. aureus ATCC 29213): 19%; MIC (M. kansasii DSM 44162; [12]): 27.4 µM (≈ 7.98 µg/mL); MIC [7, 13]: 6.85 µM (≈ 2 µg/mL); MIC [8, 14]: 6.85 µM (≈ 2 µg/mL); viability of M. tuberculosis H37Ra (MTT) [9]: 32%
COc1ccc(OC)c(NC(=O)c2ccc3ccccc3c2O)c1 [Compound 5]	–	3.70	0.8712	–	396 (≈ 128 µg/mL)	791 (≈ 256 µg/mL)	395 (≈ 128 µg/mL)	24.7 (≈ 7.99 µg/mL)	197 (≈ 63.7 µg/mL)	395 (≈ 128 µg/mL)	–
COc1ccc(C)c(NC(=O)c2ccc3ccccc3c2O)c1 [Compound 17]	–	3.85	0.5362	–	13.0 (≈ 4 µg/mL)	52.0 (≈ 16 µg/mL)	832 (≈ 256 µg/mL)	104 (≈ 32 µg/mL)	208 (≈ 63.9 µg/mL)	104 (≈ 32 µg/mL)	–
COc1cc(F)cc(NC(=O)c2ccc3ccccc3c2O)c1 [Compound 23, N-(3-Fluoro-5-methoxyphenyl)-1-hydroxynaphthalene-2-carboxamide]	>30	5.00	0.7629	1.6 (≈ 0.498 µg/mL)	25.6 (≈ 7.97 µg/mL)	1.60 (≈ 0.498 µg/mL)	–	12.0 (≈ 3.74 µg/mL)	–	–	MIC [2, 10]: 3.21 µM (≈ 0.999 µg/mL); MIC [2, 11]: 3.21 µM (≈ 0.999 µg/mL); viability of S. aureus ATCC 29213 (MTT) (S. aureus ATCC 29213): 49%; MIC (M. kansasii DSM 44162; [12]): 12 µM (≈ 3.74 µg/mL); MIC [7, 13]: 3.21 µM (≈ 0.999 µg/mL); MIC [8, 14]: 3.21 µM (≈ 0.999 µg/mL)
COc1cc(NC(=O)c2ccc3ccccc3c2O)cc(OC)c1 [Compound 6, N-(3,5-dimethoxy-phenyl)-1-hydroxynaphthalene-2-carboxamide]	>30	4.87	0.7048	12.3 (≈ 3.98 µg/mL)	24.7 (≈ 7.99 µg/mL)	12.3 (≈ 3.98 µg/mL)	–	–	–	–	MIC ([2]; Staphylococcus aureus, MRSA, read-out: MIC MRSA 63718): 24.7 µM (≈ 7.99 µg/mL); MIC ([2]; Staphylococcus aureus, MRSA, read-out: MIC against the MRSA strains): 24.7 µM (≈ 7.99 µg/mL); MIC (M. kansasii DSM 44162; Mycobacterium kansasii, DSM44162, read-out: MIC MK): 24.7 µM (≈ 7.99 µg/mL); MIC ([7]; Staphylococcus aureus, MRSA): 24.7 µM (≈ 7.99 µg/mL); MIC ([8]; Staphylococcus aureus, MRSA): 24.7 µM (≈ 7.99 µg/mL)
COc1ccc(NC(=O)c2ccc3ccccc3c2O)cc1C(F)(F)F [Compound 22]	–	4.73	0.8915	–	354 (≈ 128 µg/mL)	354 (≈ 128 µg/mL)	354 (≈ 128 µg/mL)	88.5 (≈ 32 µg/mL)	5.53 (≈ 2 µg/mL)	354 (≈ 128 µg/mL)	–
COc1ccc(Br)cc1NC(=O)c1ccc2ccccc2c1O [Compound 20, N-(5-Bromo-2-methoxyphenyl)-1-hydroxynaphthalene-2-carboxamide]	–	3.24	1.0432	687 (≈ 256 µg/mL)	344 (≈ 128 µg/mL)	–	–	–	–	–	MIC [2, 10]: 687 µM (≈ 256 µg/mL); melting point: 157 to 159 °C; MIC (M. kansasii DSM 44162; [12]): 687 µM (≈ 256 µg/mL); MIC [7, 13]: 687 µM (≈ 256 µg/mL); MIC [8, 14]: 687 µM (≈ 256 µg/mL)
Cc1ccc(NC(=O)c2ccc3ccccc3c2O)cc1 [Compound 10]	–	4.54	0.8294	–	462 (≈ 128 µg/mL)	923 (≈ 256 µg/mL)	923 (≈ 256 µg/mL)	57.7 (≈ 16 µg/mL)	923 (≈ 256 µg/mL)	923 (≈ 256 µg/mL)	–
Cc1cccc(C)c1NC(=O)c1ccc2ccccc2c1O [Compound 12]	–	4.22	0.5990	–	110 (≈ 32 µg/mL)	55.0 (≈ 16 µg/mL)	110 (≈ 32 µg/mL)	220 (≈ 64.1 µg/mL)	110 (≈ 32 µg/mL)	110 (≈ 32 µg/mL)	–
Cc1ccccc1NC(=O)c1ccc2ccccc2c1O [Compound 8]	–	4.20	0.5650	–	462 (≈ 128 µg/mL)	115 (≈ 31.9 µg/mL)	231 (≈ 64.1 µg/mL)	115 (≈ 31.9 µg/mL)	231 (≈ 64.1 µg/mL)	231 (≈ 64.1 µg/mL)	–
COc1cc([N+](=O)[O-])ccc1NC(=O)c1ccc2ccccc2c1O [Compound 18]	–	3.31	0.5434	–	378 (≈ 128 µg/mL)	756 (≈ 256 µg/mL)	756 (≈ 256 µg/mL)	756 (≈ 256 µg/mL)	756 (≈ 256 µg/mL)	756 (≈ 256 µg/mL)	–
COc1cccc(NC(=O)c2ccc3ccccc3c2O)c1 [Compound 3]	–	4.63	0.6713	–	436 (≈ 128 µg/mL)	109 (≈ 32 µg/mL)	>873	>873	>873	>873	–
